Measurements taken from patent US20060008574A1, “Galactosyl isomalt, method for production and use thereof” (priority 2002, published 2006).

Columns and labels:
B. bifidum DSM 20215 = experiment: Fermentation by human bifidobacteria; assay type: cell-based; parameters: key: −: no decomposition; +: decomposition and metabolization of galactose from β-1,3-galactosyl isomalt; ++: decomposition and metabolization of galactose and glucose from β-1,3-galactosyl isomalt; +++: complete decomposition of β-1,3-galcatosyl isomalt; conditions: medium 2, 48 h
Method: (§1) To investigate the prebiotic and bifidogenic properties of galactosyl isomalt, the growth of various human bifidobacteria was investigated on this substrate in vitro. An anaerobic medium of the following composition was used:
(§2) 22 strains of human bifidobacteria were first precultured in “Hungate” test tubes on the above medium 1, in which the source of carbohydrate had first been replaced by glucose (10 g/L). The strains were then inoculated onto medium 2, incubated for 48 h, and then the optical density (E578), the pH, the formation of acetate and lactate and the decrease of the β-1,3-galactosyl isomalt concentration were determined.
(§3) Various decomposition paths are distinguished with regard to the metabolization of galactosyl isomalt. Some strains degrade galactose from the substrate with a β-galactosidase and metabolize this monosaccharide (+).
(§4) Other strains additionally degrade glucose from the resulting isomalt, in addition to galactose, metabolize both monosaccharides, while this is not true for the resulting mannitol or sorbitol (++). The third group is capable of utilizing galactosyl isomalt as a substrate and also metabolizing mannitol and sorbitol (+++).

B. angulatum DSM 20098 = experiment: Fermentation by human bifidobacteria; assay type: cell-based; parameters: key: −: no decomposition; +: decomposition and metabolization of galactose from β-1,3-galactosyl isomalt; ++: decomposition and metabolization of galactose and glucose from β-1,3-galactosyl isomalt; +++: complete decomposition of β-1,3-galcatosyl isomalt; conditions: medium 2, 48 h
Method: as §1, §2, §3, §4

B. breve DSM 20091 = experiment: Fermentation by human bifidobacteria; assay type: cell-based; parameters: key: −: no decomposition; +: decomposition and metabolization of galactose from β-1,3-galactosyl isomalt; ++: decomposition and metabolization of galactose and glucose from β-1,3-galactosyl isomalt; +++: complete decomposition of β-1,3-galcatosyl isomalt; conditions: medium 2, 48 h
Method: as §1, §2, §3, §4

[1] = tested on: B. adolescentis DSM 20083; experiment: Fermentation by human bifidobacteria; assay type: cell-based; parameters: key: −: no decomposition; +: decomposition and metabolization of galactose from β-1,3-galactosyl isomalt; ++: decomposition and metabolization of galactose and glucose from β-1,3-galactosyl isomalt; +++: complete decomposition of β-1,3-galcatosyl isomalt; conditions: medium 2, 48 h
Method: as §1, §2, §3, §4

B. bifidum DSM 20239 = experiment: Fermentation by human bifidobacteria; assay type: cell-based; parameters: key: −: no decomposition; +: decomposition and metabolization of galactose from β-1,3-galactosyl isomalt; ++: decomposition and metabolization of galactose and glucose from β-1,3-galactosyl isomalt; +++: complete decomposition of β-1,3-galcatosyl isomalt; conditions: medium 2, 48 h
Method: as §1, §2, §3, §4

B. gallicum DSM 20093 = experiment: Fermentation by human bifidobacteria; assay type: cell-based; parameters: key: −: no decomposition; +: decomposition and metabolization of galactose from β-1,3-galactosyl isomalt; ++: decomposition and metabolization of galactose and glucose from β-1,3-galactosyl isomalt; +++: complete decomposition of β-1,3-galcatosyl isomalt; conditions: medium 2, 48 h
Method: as §1, §2, §3, §4

B. bifidum DSM 20456 = experiment: Fermentation by human bifidobacteria; assay type: cell-based; parameters: key: −: no decomposition; +: decomposition and metabolization of galactose from β-1,3-galactosyl isomalt; ++: decomposition and metabolization of galactose and glucose from β-1,3-galactosyl isomalt; +++: complete decomposition of β-1,3-galcatosyl isomalt; conditions: medium 2, 48 h
Method: as §1, §2, §3, §4

B. catenulatum DSM 20224 = experiment: Fermentation by human bifidobacteria; assay type: cell-based; parameters: key: −: no decomposition; +: decomposition and metabolization of galactose from β-1,3-galactosyl isomalt; ++: decomposition and metabolization of galactose and glucose from β-1,3-galactosyl isomalt; +++: complete decomposition of β-1,3-galcatosyl isomalt; conditions: medium 2, 48 h
Method: as §1, §2, §3, §4

B. infantis DSM 20218 = experiment: Fermentation by human bifidobacteria; assay type: cell-based; parameters: key: −: no decomposition; +: decomposition and metabolization of galactose from β-1,3-galactosyl isomalt; ++: decomposition and metabolization of galactose and glucose from β-1,3-galactosyl isomalt; +++: complete decomposition of β-1,3-galcatosyl isomalt; conditions: medium 2, 48 h
Method: as §1, §2, §3, §4

[2] = tested on: B. adolescentis DSM 20087; experiment: Fermentation by human bifidobacteria; assay type: cell-based; parameters: key: −: no decomposition; +: decomposition and metabolization of galactose from β-1,3-galactosyl isomalt; ++: decomposition and metabolization of galactose and glucose from β-1,3-galactosyl isomalt; +++: complete decomposition of β-1,3-galcatosyl isomalt; conditions: medium 2, 48 h
Method: as §1, §2, §3, §4

[3] = tested on: B. pseudocatenulatum DSM 20438; experiment: Fermentation by human bifidobacteria; assay type: cell-based; parameters: key: −: no decomposition; +: decomposition and metabolization of galactose from β-1,3-galactosyl isomalt; ++: decomposition and metabolization of galactose and glucose from β-1,3-galactosyl isomalt; +++: complete decomposition of β-1,3-galcatosyl isomalt; conditions: medium 2, 48 h
Method: as §1, §2, §3, §4

B. bifidum DSM 20082 = experiment: Fermentation by human bifidobacteria; assay type: cell-based; parameters: key: −: no decomposition; +: decomposition and metabolization of galactose from β-1,3-galactosyl isomalt; ++: decomposition and metabolization of galactose and glucose from β-1,3-galactosyl isomalt; +++: complete decomposition of β-1,3-galcatosyl isomalt; conditions: medium 2, 48 h
Method: as §1, §2, §3, §4

B. longum DSM 20219 = experiment: Fermentation by human bifidobacteria; assay type: cell-based; parameters: key: −: no decomposition; +: decomposition and metabolization of galactose from β-1,3-galactosyl isomalt; ++: decomposition and metabolization of galactose and glucose from β-1,3-galactosyl isomalt; +++: complete decomposition of β-1,3-galcatosyl isomalt; conditions: medium 2, 48 h
Method: as §1, §2, §3, §4

[4] = tested on: glucoamylase/maltase (GM complex); experiment: Stability with respect to small intestine α-glucosidases: glucoamylase/maltase; conditions: 120 min incubation
Method: Solution 1: 0.1 mol/L triethanolamine (TEA) buffer, pH 7.0
Solution 6: 1% solution of maltose in solution 1
Solution 7: 1% solution of sucrose in solution 1
Solution 8: 1% solution of isomalt in solution 1
Solution 9: 1% solution of isomaltulose in solution 1
Solution 11: Glucoamylase/maltase enzyme complex in solution 1
i) 0.7 unit of the enzyme complex saccharase/isomaltase (solution 10) or glucoamylase/maltase (solution 11) was added in each case to 1.0 mL of a carbohydrate solution heated to 37° C. (solution 2 to solution 8), mixed and incubated at 37° C.
ii) For incubation under more severe conditions, 16 units of the enzyme complex saccharase/isomaltase or 13 units of the enzyme complex glucoamylase/maltase were used. The reaction was stopped after 2 h by heating to 95° C. for 15 min. The resulting monosaccharides and the undegraded saccharides of the relevant batches were quantitatively determined by HPAEC.

human feces = experiment: In vitro fermentation in human feces; assay type: cell-based; conditions: for Degradation rate: 0.5% (w/v) substrate, feces suspension, anaerobic, 37° C.
Method: Incubation of carbohydrates with human feces allows statements to be made about the rate of metabolization by the bacterial population and formation of the short-chain fatty acid butyric acid.
To invest the fermentability in an in vitro fermentation experiment, Raftilose® P95 (fructooligosaccharides, DP4-5), galactosyl lactose (Oligomate DP 3) and lactosucrose were used for comparison as carbohydrates of similar structure and degree of polymerization, in addition to β-galactosyl isomalts.
An anaerobic medium of the following composition was used for the in vitro experiments:
9 mL of the anaerobic medium 1 described above are mixed with 0.5% (w/v) of the galactosyl isomalts to be tested (prepared according to Examples 1-3) and the corresponding controls lactosucrose and galactosyl lactose and then inoculated with 1 mL of a 10% feces suspension (mixed feces from two subjects) in anaerobic 50 mmol/L phosphate buffer, pH 7.0, to which 0.5 g/L cysteine/HCl was added beforehand as reducing agent.
The batches are then incubated in “Hungate” test tubes for a maximum of 28 h while shaking at 37° C. Samples are taken at various times and tested for content of residual oligosaccharides, short-chain fatty acids, lactic acid and pH.

OCC1O[C@H](OC[C@@H](O)[C@@H](O)[C@H](O)C(O)CO)C(O)C(O[C@@H]2OC(CO)[C@H](O)C(O)C2O)[C@@H]1O (mixture of isomers) [β-1,3-Galactosyl isomalt, β-D-galactosyl-(1→3)-α-D-glucosyl-(1→6)-D-sorbitol(β-1,3-galactosyl-1,6-GPS) and β-D-galactosyl-(1→3)-α-D-glucosyl-(1→1)-D-mannitol(β-1,3-galactosyl-1,1-GPM)]
Growth on β-1,3-galactosyl isomalt (B. bifidum DSM 20215): + | Growth on β-1,3-galactosyl isomalt (B. angulatum DSM 20098): ++ | Growth on β-1,3-galactosyl isomalt (B. breve DSM 20091): + | Growth on β-1,3-galactosyl isomalt [1]: +++ | Growth on β-1,3-galactosyl isomalt (B. bifidum DSM 20239): + | Growth on β-1,3-galactosyl isomalt (B. gallicum DSM 20093): − | Growth on β-1,3-galactosyl isomalt (B. bifidum DSM 20456): − | Growth on β-1,3-galactosyl isomalt (B. catenulatum DSM 20224): ++ | Growth on β-1,3-galactosyl isomalt (B. infantis DSM 20218): − | Growth on β-1,3-galactosyl isomalt [2]: +++ | Growth on β-1,3-galactosyl isomalt [3]: ++ | Growth on β-1,3-galactosyl isomalt (B. bifidum DSM 20082): + | Growth on β-1,3-galactosyl isomalt (B. longum DSM 20219): +++ | Hydrolysis rate [%] ([4]; More stringent (13 units)): 0% | Hydrolysis rate [%] ([4]; Standard (0.7 unit), 37° C., pH 7.0): 0% | Butyrate content (end sample) (human feces; end of fermentation with human feces): 13.3 mmol/L | Degradation rate (human feces; incubation time 7 (h)): 62% | Degradation rate (human feces; incubation time 22 (h)): 93.6% | Degradation rate (human feces; incubation time 28 (h)): 97%
